According to patent publication US9115085B2, “Crystalline forms of a prolyl hydroxylase inhibitor” (FibroGen, Inc., priority 2012, dated 2015):
Values belong to the molecule of their own block, whether it stands above or below them.

Experiments:
Moisture sorption = type: physicochemical; conditions: from 5% to 95% relative humidity; lost on desorption
Hep3B cells = test: Cell-based EPO assay; set-up: species or system human; conditions: 30 μM compound in DMSO compared to DMSO only control, 72 hours
Method: Hep3B cells (human hepatocellular carcinoma cells from ATCC, cat #HB-8064) were plated at 25,000 cells per well 96 well plates. The next day, the cells were washed once with DMEM (Cellgro, cat #10-013-CM)+0.5% fetal bovine serum (Cellgro, cat #35-010-CV) and incubated with various concentrations of compound or vehicle control (0.15% DMSO) in DMEM+0.5% fetal bovine serum for 72 hours. Cell free culture supernatants were generated by transfer to a conical bottom 96 well plate and centrifugation for 5 minutes at 2000 rpm. The supernatant was quantitated for EPO using a human EPO ELISA kit (R&D Systems, cat #DEP 00). The EPO values for the compounds reported herein (e.g., Table 22) are the measured value for cells plus compound minus the value for the vehicle control for the same cell preparation. The EPO values for the vehicle control for the cell preparations varied from 0-12.5 mIU/mL.

[1] = Solid form stability on storage (XRPD); type: physicochemical; conditions: for XRPD pattern / form after storage: 40° C./75% RH
Text: X-Ray Powder Diffraction patterns were collected on a Bruker AXS C2 GADDS diffractometer using Cu Kα radiation (40 kV, 40 mA), automated XYZ stage, laser video microscope for auto-sample positioning and a HiStar 2-dimensional area detector. X-ray optics consists of a single Gobel multilayer mirror coupled with a pinhole collimator of 0.3 mm. […] Alternatively, X-Ray Powder Diffraction patterns were collected on a Bruker D8 diffractometer using Cu Kα radiation (40 kV, 40 mA), θ-2θ goniometer, and divergence of V4 and receiving slits, a Ge monochromator and a Lynxeye detector. […] The software used for data collection was Diffrac Plus XRD Commander v2.5.0 and the data were analyzed and presented using Diffrac Plus EVA v11.0.0.2 or v13.0.0.2. Samples were run under ambient conditions as flat plate specimens using powder as received. The sample was gently packed into a cavity cut into polished, zero-background (510) silicon wafer. The sample was rotated in its own plane during analysis. The details of the data collection are: • Angular range: 2 to 42°2θ • Step size: 0.05°2θ • Collection time: 0.5 s/step • Analysis duration: 7 minutes Differential Scanning Calorimetry (DSC)

Molecule: [(4-hydroxy-1-methyl-7-phenoxy-isoquinoline-3-carbonyl)-amino]-acetic acid diethanolamine salt [Compound A diethanolamine salt]
XRPD pattern / form after storage [1]: Pattern 2

Molecule: [(4-hydroxy-1-methyl-7-phenoxy-isoquinoline-3-carbonyl)-amino]-acetic acid hemihydrate [Compound A Form B]
form conversion on storage ([1]; ambient temperature, full month (32 days), high resolution XRPD): almost completely reverted to anhydrous Form A
crystalline pattern change on storage ([1]; stored at 25° C./96% RH for twelve days): reverting to Form A

More lines, main results first:

moisture sorption weight gain (Moisture sorption): approximately 0.2%
relative stability of crystalline forms ([1]; among Form B, C, and D of Compound A): most stable crystalline form
Molecule: Cc1nc(C(=O)NCC(=O)O)c(O)c2ccc(Oc3ccccc3)cc12 [Compound A Form A, [(4-hydroxy-1-methyl-7-phenoxy-isoquinoline-3-carbonyl)-amino]-acetic acid]
Cell EPO (Hep3B cells): 182 mIU/mL

form conversion ([1]; left drying at ambient temperature): converted to Form A
Molecule: Cc1nc(C(=O)NCC(=O)O)c(O)c2ccc(Oc3ccccc3)cc12 [Compound A Form D, [(4-hydroxy-1-methyl-7-phenoxy-isoquinoline-3-carbonyl)-amino]-acetic acid DMSO:water solvate]

XRPD pattern / form after storage [1]: Pattern 3
Molecule: Cc1nc(C(=O)NCC(=O)O)c(O)c2ccc(Oc3ccccc3)cc12.NCCO [Compound A ethanolamine salt, [(4-hydroxy-1-methyl-7-phenoxy-isoquinoline-3-carbonyl)-amino]-acetic acid ethanolamine salt]
